From patent publication US20240299393A1, “SMALL MOLECULE DISRUPTORS OF PROTEIN INTERACTIONS IN HISTONE DEACETYLASE COMPLEXES” (Dana-Farber Cancer Institute, Inc., priority 2021, published 2024)
“Also recorded” adds a separate entry of the source.

How the values were obtained:
[1] = system: yeast S. cerevisiae Sin3 PAH1 and PAH3 domains; experiment: Ligand-detected NMR, yeast Sin3 PAH1 and PAH3; assay type: binding; conditions: FIG. 27
Experimental: Ligand-detected NMR experiments: all results were acquired using a 3 mm tube at 25° C. on a Bruker 600 MHz Avance II system equipped with a CPPTCI cryoprobe (Bruker BioSpin Corp.). In all experiments, the concentration of E6R was fixed at 300 μM (from a stock of 25 mM in deuterated DMSO) and the concentration of the protein at 10 μM. The volume of deuterated DMSO was kept constant (1.5%) in all tested samples. Right before the experiments, the compound and protein were diluted in 1×PBS containing 0.1% deuterated dithiothreitol (DTT) to a total volume of 200 μL. Samples were diluted by 5% with D2O for magnetic field lock. Spectra were acquired for ligand only, protein only, and ligand+protein. […] STD experiments [Mayer et al 2001] were acquired with 160 scans, with protein irradiation applied for 3 s at 0 ppm and −20 ppm for the on and off resonance experiments, respectively. On and off resonance spectra were collected and stored separately. One-dimensional CPMG-R2 edited experiments [Hajduk et al 1997] were collected for samples with and without proteins using seven CPMG delays (0, 25, 50, 100, 300, 500, and 800 ms) with four scans per delay. Proton spectra used to measure DLB and chemical shift perturbations in the absence and presence of the proteins were recorded with 16 scans using a recycle delay of 3 s. […]

[2] = system: human neuroblastoma SK-N-BE(2)-C xenograft; experiment: Neuroblastoma xenograft efficacy study; assay type: in vivo; conditions: E6R 50 mg/kg, SAHA 20 mg/kg
Experimental: Xenografts studies were performed at the TRACE PDX platform of the Leuven Cancer Institute (LKI) at KU Leuven-UZ Leuven. Treatment experiments included 24 NMRI-Foxlnu nude mice (Taconic) implanted with human neuroblastoma cell line SK-N-BE(2)-C(2 million cells/implant/mouse). Cells, tested for a full panel of murine pathogens (Impact profile I, IDEXX) prior to engraftment, were resuspended in 50% matrigel solution in PBS for injection in the mouse right flank. When tumors reached a volume of approximately 200 mm^3, mice were randomly assigned to vehicle (34% DMSO, 55% saline 0.9%, 5% ethanol, 5% kolliphor, 1% NaOH 1 M), E6R (50 mg/kg), or SAHA (20 mg/kg) treatment groups. Treatments were administered daily intraperitoneally for 10 days or until reaching human endpoint (i.e. tumor volume >1,500 mm^3). Tumors were measured daily with digital calipers, and volume was estimated as V=L×W×H×(π/6) (L: length; W: width; H: height). […] All data were analyzed using GraphPad Prism 8. Comparisons between the vehicle and treated groups were tested for statistical significance using […].

[3] = system: HDAC-regulated genes in spleen and frontal cortex; experiment: Pilot RT-qPCR in spleen and frontal cortex of treated mice; assay type: in vivo, mouse; conditions: 5, 15 or 50 mg/kg, chronic
Experimental: For the pilot RT-qPCR experiment, in addition to the vehicle condition (ethanol 100%/kolliphor/saline 0.9% in a proportion of 1:1:14.4; for the 50 mg/kg dose, 14 μL NaOH 1M were also added), three doses (mg/kg) of E6R were tested: 5, 15, and 50, with 4 (vehicle) or 3 (E6R) animals per group. A dose of 50 mg/kg was picked to conduct further experiments. For the RNA-Seq experiment, E6R was dissolved in a vehicle solution containing saline 55% v/v, DMSO 34% v/v, ethanol 5% v/v, kolliphor EL (Sigma-Aldrich, MO, USA) 5% v/v, NaOH 1M 1% v/v. The vehicle group received the same solution. Animals were injected daily by intraperitoneal (I.P.) injection with 5 μL/g of the solution (50 mg/kg of the drug or vehicle) at 11 am for 10 days. Animal wellness was verified by daily visual inspection and weighing. […] On the 11th day, animals were sacrificed by bleeding via heart puncture under carbon dioxide anesthesia. The brains were quickly removed and the bilateral frontal cortex (bregma 1.90 to 1.40 mm) was dissected followed by total RNA extraction. The spleens were also collected in the pilot RT-qPCR experiments.
Qiagen™ RNeasy mini kits (Valencia, CA) were used following the manufacturer's protocol. […] Purity of the RNA preparation was determined as the 260/280 nm ratio with expected values between 2 and 2.3. […]

[4] = target: T1, SIN3A occupancy at the Homer1 promoter (Mus musculus, UniProt Q60520); experiment: ChIP-qPCR of SIN3A at Homer1 in mouse frontal cortex; assay type: in vivo
T1 construct: from tissue; host or cells: mouse frontal cortex (C57BL/6N, treated in vivo)
T1 sequence (Q60520 whole entry): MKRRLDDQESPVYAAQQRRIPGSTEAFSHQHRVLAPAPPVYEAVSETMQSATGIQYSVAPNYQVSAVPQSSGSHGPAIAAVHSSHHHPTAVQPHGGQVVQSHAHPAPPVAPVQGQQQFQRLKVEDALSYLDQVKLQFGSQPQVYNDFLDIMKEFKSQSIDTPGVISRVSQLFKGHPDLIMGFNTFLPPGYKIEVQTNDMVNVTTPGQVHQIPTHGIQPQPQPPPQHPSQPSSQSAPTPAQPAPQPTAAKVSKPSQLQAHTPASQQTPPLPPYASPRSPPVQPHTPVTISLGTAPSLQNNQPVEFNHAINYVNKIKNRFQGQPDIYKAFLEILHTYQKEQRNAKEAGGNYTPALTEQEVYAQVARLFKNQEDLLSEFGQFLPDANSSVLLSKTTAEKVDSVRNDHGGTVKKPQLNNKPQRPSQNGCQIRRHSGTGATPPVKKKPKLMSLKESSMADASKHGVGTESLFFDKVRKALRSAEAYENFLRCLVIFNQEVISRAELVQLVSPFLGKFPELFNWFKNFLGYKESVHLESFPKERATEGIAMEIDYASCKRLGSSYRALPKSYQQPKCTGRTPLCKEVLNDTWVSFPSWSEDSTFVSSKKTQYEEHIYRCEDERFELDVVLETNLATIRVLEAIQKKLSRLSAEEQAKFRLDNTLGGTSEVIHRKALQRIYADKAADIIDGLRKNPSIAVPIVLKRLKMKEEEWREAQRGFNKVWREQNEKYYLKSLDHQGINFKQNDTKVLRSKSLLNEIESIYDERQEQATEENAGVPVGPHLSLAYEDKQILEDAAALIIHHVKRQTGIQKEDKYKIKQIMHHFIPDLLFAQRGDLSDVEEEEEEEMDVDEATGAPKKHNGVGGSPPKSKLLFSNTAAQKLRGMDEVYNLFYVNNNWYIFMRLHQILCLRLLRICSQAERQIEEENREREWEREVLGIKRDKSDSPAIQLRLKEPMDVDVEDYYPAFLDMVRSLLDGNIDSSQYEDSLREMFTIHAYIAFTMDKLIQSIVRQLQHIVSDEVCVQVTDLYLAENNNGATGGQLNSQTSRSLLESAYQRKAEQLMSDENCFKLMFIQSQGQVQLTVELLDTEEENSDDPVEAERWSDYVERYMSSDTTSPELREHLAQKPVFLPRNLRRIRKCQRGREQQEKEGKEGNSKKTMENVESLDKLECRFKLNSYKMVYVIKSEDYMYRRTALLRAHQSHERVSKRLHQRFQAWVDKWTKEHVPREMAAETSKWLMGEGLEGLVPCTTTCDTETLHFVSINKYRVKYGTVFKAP
Experimental: ChIP assays were performed using the MAGnify ChIP system (ThermoFisher, MA) according to the manufacturer's protocol with a few modifications. A small section (50 mg) of the frontal cortex (FC) was used. Chromatin was sheared with the Covaris® S2 system (Covaris, Woburn, MA) using the following program: duty cycle 5%, intensity 2, 200 cycles per burst, 60 s cycle per time, 20 cycles, temperature 4° C. A volume of 10 μL chromatin was used per sample. A total of 0.5 μg of the anti-H3 antibody (PA5 16183, Invitrogen, Carlsbad, CA), 1 μg of the anti-SIN3A antibody (ab3479, Abcam, Cambridge, MA) or anti-IgG (ab37355, Abcam) was used per sample. Quantitative real-time PCR analysis was performed following magnetic bead-based DNA purification. The DNA samples were amplified in quadruplicate reactions as previously described [Ibi et al 2017] using the QuantStudio 6 Flex Real-Time PCR System (Applied Biosystems) using the PowerUP SYBR Green Master Mix (Applied Biosystems). All primers for ChIP-qPCR are described in FIG. 34.

[5] = Mouse liver microsome stability test; assay type: in vitro ADME; conditions: 1 mg/mL hepatic microsomes
Experimental: Mouse liver microsome (MLM) half-life measurements were performed by Scripps Florida Pharmacology Core, according to their protocols [Lamberto et al 2017]. 1 mg/mL hepatic microsomes was used to test compounds.
To assess whether E6R may be suitable for testing the effect of HDAC inhibition via new mechanisms in mouse, the half-life […] and intrinsic clearance (Clint) of this compound was first measured using a standard microsomal metabolic assay where sunitinib was used as a control [Lamberto et al 2017]. In this setting, compound degradation is induced by concentrated microsomes isolated from mouse liver. In particular, these hepatic extracts contain the cytochrome P450 system that is primarily responsible for first pass metabolism in vivo.

For `C[C@@H](NC(=O)c1c(O)n2ccccc2nc1=O)c1ccccc1` [E6R, 4-hydroxy-2-oxo-N—((R)-1-phenylethyl)-3,4-dihydro-2H-pyrido[, 2-a]pyrimidine-3-carboxamide], the “binding to other PAH domains of yeast Sin3 by NMR” value [1] was “can bind”, the “tolerability and body weight of xenografted mice” value ([2]; daily) was “did not affect mice weight; also recorded: well-tolerated” and the “growth of neuroblastoma tumors compared to vehicle” value ([2]; daily intraperitoneally 10 days) was “significantly reduced the growth”. The “expression levels of tested genes in spleen and frontal cortex” value [3] was “able to change expression levels”, the “recruitment of SIN3A at Homer1 promoter” value ([4]; HDAC2 cKO mice) was “not observed” and the “recruitment of SIN3A at Homer1 promoter” value ([4]; WT mice, chronic 50 mg/kg, vs vehicle) was “significantly reduced recruitment; also recorded: significantly reduces”. For the same compound, the “half-life in mouse liver microsomes” value [5] was 17 min.
